Marks after values point to notes of the source that are not given here.
Columns and labels:
[1] = Plate-based fluorescence (RiboGreen) assay: nucleic acid cargo content and encapsulation efficiency of LNPs; assay type: physicochemical; conditions: for EE (%) N/P:6: LNP
Outline: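 LNPs made by microfluidic mixing of ethanolic lipids with mRNA in pH 4.0 citrate, dialyzed into PBS pH 7.4. Cargo quantified by RiboGreen fluorescence against a standard curve: Triton-lysed samples give total, TE-only samples give free cargo; encapsulation efficiency from their ratio.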

[2] = tested on: mouse organs; assay: In vivo activity screening in mice: organ mean total flux (p/s) of luciferase activity after injection of F2 LNP pools (Table 6, FIG. 7A-7C); conditions: luciferase mRNA
Outline: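 C57BL/6J mice given one tail-vein injection of pooled Formulation F2 LNPs carrying firefly luciferase mRNA (0.25-3 mg/kg) in PBS. At 4-6 h, s.c. D-luciferin given; organs imaged ex vivo by IVIS within 10-15 min, after saline cardiac perfusion. Mean total flux (p/s) per organ ROI.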

[3] = Dynamic light scattering: LNP particle size and PDI; assay type: physicochemical; conditions: for PDI N/P:6 / Size (nm) N/P:6: LNP
Outline: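 The LNPs were made by microfluidic mixing of the lipids in ethanol with mRNA in pH 4.0 citrate, then dialyzed into PBS pH 7.4. They were diluted in PBS pH 7.4, and particle size and PDI were measured by dynamic light scattering.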

[4] = LNP compositions for Formulation F2 Study
[5] = LNP compositions for in vivo mouse study, four formulations (F1-F4) pooled, or pools of four compounds

SMILES: CCCCC/C=C\CCOC(=O)CCCCC(=O)OCC(COC(=O)CCCCC(=O)OCC/C=C\CCCCC)(COC(=O)CCC(CCCCCC)OC(=O)NCCN1CCCC1)COC(=O)CC12CC3CC(CC(C3)C1)C2 (stereo not drawn) [Compound 14, O6-[2-[[2-(1-adamantyl)acetyl]oxymethyl]-2-[[6-[(Z)-non-3-enoxy]-6-oxo-hexanoyl]oxymethyl]-3-[4-(2-pyrrolidin-1-ylethylcarbamoyloxy)decanoyloxy]propyl]O1-[(Z)-non-3-enyl]hexanedioate]
- EE % [1, 4]: 99%
- EE % [1, 5]: 96%
- mRNA Content [1, 5]: 93 µg/mL
- EE (%) N/P:6 ([1]; Formulation F1, N/P 6): 99%
- EE (%) N/P:6 ([1]; Formulation F2, N/P 6): 99%
- EE (%) N/P:6 ([1]; Formulation F3, N/P 6): 99%
- EE (%) N/P:6 ([1]; Formulation F4, N/P 6): 98%
- Organ Mean Total Flux Femur ([2]; Mouse 1, dose 0.3 mg/kg): 9.3 p/s (×10^6)
- Organ Mean Total Flux Heart ([2]; Mouse 1, dose 0.3 mg/kg): 1.8 p/s (×10^6)
- Organ Mean Total Flux Kidney ([2]; Mouse 1, dose 0.3 mg/kg): 2.8 p/s (×10^6)
- Organ Mean Total Flux Liver ([2]; Mouse 1, dose 0.3 mg/kg): 3910 p/s (×10^6)
- Organ Mean Total Flux Lung ([2]; Mouse 1, dose 0.3 mg/kg): 31.9 p/s (×10^6)
- Organ Mean Total Flux Muscle ([2]; Mouse 1, dose 0.3 mg/kg): 9.5 p/s (×10^6)
- Organ Mean Total Flux Pancreas ([2]; Mouse 1, dose 0.3 mg/kg): 14.9 p/s (×10^6)
- Organ Mean Total Flux Spleen ([2]; Mouse 1, dose 0.3 mg/kg): 31.5 p/s (×10^6)
- Organ Mean Total Flux Femur ([2]; Mouse 2, dose 1.0 mg/kg): 62.6 p/s (×10^6)
- Organ Mean Total Flux Heart ([2]; Mouse 2, dose 1.0 mg/kg): 5.9 p/s (×10^6)
- Organ Mean Total Flux Kidney ([2]; Mouse 2, dose 1.0 mg/kg): 7.0 p/s (×10^6)
- Organ Mean Total Flux Liver ([2]; Mouse 2, dose 1.0 mg/kg): 2883 p/s (×10^6)
- Organ Mean Total Flux Lung ([2]; Mouse 2, dose 1.0 mg/kg): 96.9 p/s (×10^6)
- Organ Mean Total Flux Muscle ([2]; Mouse 2, dose 1.0 mg/kg): 144.9 p/s (×10^6)
- Organ Mean Total Flux Pancreas ([2]; Mouse 2, dose 1.0 mg/kg): 32.1 p/s (×10^6)
- Organ Mean Total Flux Spleen ([2]; Mouse 2, dose 1.0 mg/kg): 107.0 p/s (×10^6)
- Organ Mean Total Flux Femur ([2]; Mouse 3, dose 1.0 mg/kg): 41.8 p/s (×10^6)
- Organ Mean Total Flux Heart ([2]; Mouse 3, dose 1.0 mg/kg): 8.6 p/s (×10^6)
- Organ Mean Total Flux Kidney ([2]; Mouse 3, dose 1.0 mg/kg): 7.7 p/s (×10^6)
- Organ Mean Total Flux Liver ([2]; Mouse 3, dose 1.0 mg/kg): 4307 p/s (×10^6)
- Organ Mean Total Flux Lung ([2]; Mouse 3, dose 1.0 mg/kg): 49.2 p/s (×10^6)
- Organ Mean Total Flux Muscle ([2]; Mouse 3, dose 1.0 mg/kg): 193.7 p/s (×10^6)
- Organ Mean Total Flux Pancreas ([2]; Mouse 3, dose 1.0 mg/kg): 23.4 p/s (×10^6)
- Organ Mean Total Flux Spleen ([2]; Mouse 3, dose 1.0 mg/kg): 123.8 p/s (×10^6)
- Organ Mean Total Flux Femur ([2]; Mouse 5, dose 0.5 mg/kg): 11.9 p/s (×10^6)
- Organ Mean Total Flux Heart ([2]; Mouse 5, dose 0.5 mg/kg): 4.4 p/s (×10^6)
- Organ Mean Total Flux Kidney ([2]; Mouse 5, dose 0.5 mg/kg): 1.8 p/s (×10^6)
- Organ Mean Total Flux Liver ([2]; Mouse 5, dose 0.5 mg/kg): 1303 p/s (×10^6)
- Organ Mean Total Flux Lung ([2]; Mouse 5, dose 0.5 mg/kg): 18.9 p/s (×10^6)
- Organ Mean Total Flux Muscle ([2]; Mouse 5, dose 0.5 mg/kg): 34.1 p/s (×10^6)
- Organ Mean Total Flux Pancreas ([2]; Mouse 5, dose 0.5 mg/kg): 1.9 p/s (×10^6)
- Organ Mean Total Flux Spleen ([2]; Mouse 5, dose 0.5 mg/kg): 20.8 p/s (×10^6)
- Organ Mean Total Flux Femur ([2]; Mouse 6, dose 0.5 mg/kg): 9.1 p/s (×10^6)
- Organ Mean Total Flux Heart ([2]; Mouse 6, dose 0.5 mg/kg): 1.6 p/s (×10^6)
- Organ Mean Total Flux Kidney ([2]; Mouse 6, dose 0.5 mg/kg): 3.2 p/s (×10^6)
- Organ Mean Total Flux Liver ([2]; Mouse 6, dose 0.5 mg/kg): 676.3 p/s (×10^6)
- Organ Mean Total Flux Lung ([2]; Mouse 6, dose 0.5 mg/kg): 17.3 p/s (×10^6)
- Organ Mean Total Flux Muscle ([2]; Mouse 6, dose 0.5 mg/kg): 27.6 p/s (×10^6)
- Organ Mean Total Flux Pancreas ([2]; Mouse 6, dose 0.5 mg/kg): 14.7 p/s (×10^6)
- Organ Mean Total Flux Spleen ([2]; Mouse 6, dose 0.5 mg/kg): 28.7 p/s (×10^6)
- Organ Mean Total Flux Femur ([2]; Mouse 9, dose 0.5 mg/kg): 13.3 p/s (×10^6)
- Organ Mean Total Flux Heart ([2]; Mouse 9, dose 0.5 mg/kg): 1.2 p/s (×10^6)
- Organ Mean Total Flux Kidney ([2]; Mouse 9, dose 0.5 mg/kg): 2.5 p/s (×10^6)
- Organ Mean Total Flux Liver ([2]; Mouse 9, dose 0.5 mg/kg): 721.0 p/s (×10^6)
- Organ Mean Total Flux Lung ([2]; Mouse 9, dose 0.5 mg/kg): 10.4 p/s (×10^6)
- Organ Mean Total Flux Muscle ([2]; Mouse 9, dose 0.5 mg/kg): 31.2 p/s (×10^6)
- Organ Mean Total Flux Pancreas ([2]; Mouse 9, dose 0.5 mg/kg): 10.2 p/s (×10^6)
- Organ Mean Total Flux Spleen ([2]; Mouse 9, dose 0.5 mg/kg): 32.2 p/s (×10^6)
- Organ Mean Total Flux Femur ([2]; Mouse 11, dose 0.5 mg/kg): 10.1 p/s (×10^6)
- Organ Mean Total Flux Heart ([2]; Mouse 11, dose 0.5 mg/kg): 1.8 p/s (×10^6)
- Organ Mean Total Flux Kidney ([2]; Mouse 11, dose 0.5 mg/kg): 0.9 p/s (×10^6)
- Organ Mean Total Flux Liver ([2]; Mouse 11, dose 0.5 mg/kg): 360.7 p/s (×10^6)
- Organ Mean Total Flux Lung ([2]; Mouse 11, dose 0.5 mg/kg): 25.4 p/s (×10^6)
- Organ Mean Total Flux Muscle ([2]; Mouse 11, dose 0.5 mg/kg): 24.2 p/s (×10^6)
- Organ Mean Total Flux Pancreas ([2]; Mouse 11, dose 0.5 mg/kg): 4.2 p/s (×10^6)
- Organ Mean Total Flux Spleen ([2]; Mouse 11, dose 0.5 mg/kg): 26.2 p/s (×10^6)
- Organ Mean Total Flux Femur ([2]; Mouse 12, dose 0.5 mg/kg): 9.3 p/s (×10^6)
- Organ Mean Total Flux Heart ([2]; Mouse 12, dose 0.5 mg/kg): 1.8 p/s (×10^6)
- Organ Mean Total Flux Kidney ([2]; Mouse 12, dose 0.5 mg/kg): 2.2 p/s (×10^6)
- Organ Mean Total Flux Liver ([2]; Mouse 12, dose 0.5 mg/kg): 585.3 p/s (×10^6)
- Organ Mean Total Flux Lung ([2]; Mouse 12, dose 0.5 mg/kg): 32.4 p/s (×10^6)
- Organ Mean Total Flux Muscle ([2]; Mouse 12, dose 0.5 mg/kg): 35.5 p/s (×10^6)
- Organ Mean Total Flux Pancreas ([2]; Mouse 12, dose 0.5 mg/kg): 3.5 p/s (×10^6)
- Organ Mean Total Flux Spleen ([2]; Mouse 12, dose 0.5 mg/kg): 21.1 p/s (×10^6)
- Organ Mean Total Flux Femur ([2]; Mouse 13, dose 0.5 mg/kg): 8.3 p/s (×10^6)
- Organ Mean Total Flux Heart ([2]; Mouse 13, dose 0.5 mg/kg): 1.1 p/s (×10^6)
- Organ Mean Total Flux Kidney ([2]; Mouse 13, dose 0.5 mg/kg): 5.7 p/s (×10^6)
- Organ Mean Total Flux Liver ([2]; Mouse 13, dose 0.5 mg/kg): 439.7 p/s (×10^6)
- Organ Mean Total Flux Lung ([2]; Mouse 13, dose 0.5 mg/kg): 16.8 p/s (×10^6)
- Organ Mean Total Flux Muscle ([2]; Mouse 13, dose 0.5 mg/kg): 16.7 p/s (×10^6)
- Organ Mean Total Flux Pancreas ([2]; Mouse 13, dose 0.5 mg/kg): 5.3 p/s (×10^6)
- Organ Mean Total Flux Spleen ([2]; Mouse 13, dose 0.5 mg/kg): 19.7 p/s (×10^6)
- Organ Mean Total Flux Femur ([2]; Mouse 14, dose 0.5 mg/kg): 10.8 p/s (×10^6)
- Organ Mean Total Flux Heart ([2]; Mouse 14, dose 0.5 mg/kg): 2.0 p/s (×10^6)
- Organ Mean Total Flux Kidney ([2]; Mouse 14, dose 0.5 mg/kg): 4.6 p/s (×10^6)
- Organ Mean Total Flux Liver ([2]; Mouse 14, dose 0.5 mg/kg): 240.7 p/s (×10^6)
- Organ Mean Total Flux Lung ([2]; Mouse 14, dose 0.5 mg/kg): 12.6 p/s (×10^6)
- Organ Mean Total Flux Muscle ([2]; Mouse 14, dose 0.5 mg/kg): 41.1 p/s (×10^6)
- Organ Mean Total Flux Pancreas ([2]; Mouse 14, dose 0.5 mg/kg): 7.6 p/s (×10^6)
- Organ Mean Total Flux Spleen ([2]; Mouse 14, dose 0.5 mg/kg): 24.0 p/s (×10^6)
- PDI [3, 4]: 0.178
- Particle Size (nm) [3, 4]: 107.6 nm
- Particle Size (nm) ([3]; LNP compositions for in vivo mouse study, four formulations (F1-F4) of the lipid compound pooled, or pools of four compounds (sixteen compositions)): 82.9 nm
- PDI [3, 5]: 0.106
- PDI N/P:6 ([3]; Formulation F1, N/P 6): 0.06
- Size (nm) N/P:6 ([3]; Formulation F1, N/P 6): 78 ± 2 nm
- PDI N/P:6 ([3]; Formulation F2, N/P 6): 0.07
- Size (nm) N/P:6 ([3]; Formulation F2, N/P 6): 90 ± 5 nm
- PDI N/P:6 ([3]; Formulation F3, N/P 6): 0.14
- Size (nm) N/P:6 ([3]; Formulation F3, N/P 6): 83 ± 1 nm
- PDI N/P:6 ([3]; Formulation F4, N/P 6): 0.09
- Size (nm) N/P:6 ([3]; Formulation F4, N/P 6): 68 ± 3 nm
